{"source": "patent US20090246276A1", "about": "“Pharmaceutical Compositions” (priority 2008, published 2009)", "origin": "cited, not measured here", "tested_on": "patients diagnosed with MDD", "conditions": "citalopram non-responders, cited from earlier work", "note": "Read-outs that look alike come from different tables or passages of the source."}
{"smiles": "CC(NC(C)(C)C)C(=O)c1cccc(Cl)c1", "note": "(centres unmarked) [Bupropion, bupropion]", "values": [{"measurement": "remission rate", "setting": "bupropion added on to the existing citalopram treatment", "value": 30, "unit": "%"}, {"measurement": "remission rate", "setting": "switched to bupropion", "value": 20, "unit": "%"}]}
